# ± gives the uncertainty stated by the source.
# Assay: xn = mol fraction of the nth substance listed
structure (smiles),measurement,setting,value
C[N+](C)(C)CCO.O=C([O-])CC(=O)O + O,viscosity,"293.15 K, 100 kPa, x2 = 0.01",12050 ± 900 mPa·s
same,viscosity,"293.15 K, 100 kPa, x2 = 0.17",4381 ± 270 mPa·s
same,viscosity,"293.15 K, 100 kPa, x2 = 0.22",3565 ± 210 mPa·s
same,viscosity,"293.15 K, 100 kPa, x2 = 0.38",1377 ± 64 mPa·s
same,viscosity,"293.15 K, 100 kPa, x2 = 0.5",622.1 ± 24 mPa·s
same,viscosity,"293.15 K, 100 kPa, x2 = 0.58",312.8 ± 10 mPa·s
same,viscosity,"293.15 K, 100 kPa, x2 = 0.632",206.3 ± 5.8 mPa·s
same,viscosity,"293.15 K, 100 kPa, x2 = 0.673",145.4 ± 3.7 mPa·s
same,viscosity,"293.15 K, 100 kPa, x2 = 0.864",14.3 ± 0.4 mPa·s
same,viscosity,"298.15 K, 100 kPa, x2 = 0.01",7430 ± 510 mPa·s
same,viscosity,"298.15 K, 100 kPa, x2 = 0.17",2850 ± 160 mPa·s
same,viscosity,"298.15 K, 100 kPa, x2 = 0.22",2316 ± 120 mPa·s
same,viscosity,"298.15 K, 100 kPa, x2 = 0.38",941.2 ± 40 mPa·s
same,viscosity,"298.15 K, 100 kPa, x2 = 0.5",438.7 ± 15 mPa·s
same,viscosity,"298.15 K, 100 kPa, x2 = 0.58",227 ± 6.6 mPa·s
same,viscosity,"298.15 K, 100 kPa, x2 = 0.632",152.2 ± 4 mPa·s
same,viscosity,"298.15 K, 100 kPa, x2 = 0.673",108.9 ± 2.6 mPa·s
same,viscosity,"298.15 K, 100 kPa, x2 = 0.864",11.9 ± 0.3 mPa·s
same,viscosity,"303.15 K, 100 kPa, x2 = 0.01",4675 ± 290 mPa·s
same,viscosity,"303.15 K, 100 kPa, x2 = 0.17",1908 ± 96 mPa·s
same,viscosity,"303.15 K, 100 kPa, x2 = 0.22",1563 ± 75 mPa·s
same,viscosity,"303.15 K, 100 kPa, x2 = 0.38",651 ± 25 mPa·s
same,viscosity,"303.15 K, 100 kPa, x2 = 0.5",317.1 ± 10 mPa·s
same,viscosity,"303.15 K, 100 kPa, x2 = 0.58",168.5 ± 4.5 mPa·s
same,viscosity,"303.15 K, 100 kPa, x2 = 0.632",114.7 ± 2.8 mPa·s
same,viscosity,"303.15 K, 100 kPa, x2 = 0.673",83.2 ± 1.9 mPa·s
same,viscosity,"303.15 K, 100 kPa, x2 = 0.864",9.9 ± 0.3 mPa·s
same,viscosity,"308.15 K, 100 kPa, x2 = 0.01",3076 ± 170 mPa·s
same,viscosity,"308.15 K, 100 kPa, x2 = 0.17",1312 ± 60 mPa·s
same,viscosity,"308.15 K, 100 kPa, x2 = 0.22",1084 ± 48 mPa·s
same,viscosity,"308.15 K, 100 kPa, x2 = 0.38",467.9 ± 17 mPa·s
same,viscosity,"308.15 K, 100 kPa, x2 = 0.5",234.5 ± 6.9 mPa·s
same,viscosity,"308.15 K, 100 kPa, x2 = 0.58",127.7 ± 3.2 mPa·s
same,viscosity,"308.15 K, 100 kPa, x2 = 0.632",88.2 ± 2 mPa·s
same,viscosity,"308.15 K, 100 kPa, x2 = 0.673",64.8 ± 1.4 mPa·s
same,viscosity,"308.15 K, 100 kPa, x2 = 0.864",8.4 ± 0.2 mPa·s
same,viscosity,"313.15 K, 100 kPa, x2 = 0.01",2089 ± 110 mPa·s
same,viscosity,"313.15 K, 100 kPa, x2 = 0.17",924.5 ± 39 mPa·s
same,viscosity,"313.15 K, 100 kPa, x2 = 0.22",770 ± 31 mPa·s
same,viscosity,"313.15 K, 100 kPa, x2 = 0.38",343.9 ± 11 mPa·s
same,viscosity,"313.15 K, 100 kPa, x2 = 0.5",177.1 ± 4.8 mPa·s
same,viscosity,"313.15 K, 100 kPa, x2 = 0.58",98.6 ± 2.3 mPa·s
same,viscosity,"313.15 K, 100 kPa, x2 = 0.632",69 ± 1.5 mPa·s
same,viscosity,"313.15 K, 100 kPa, x2 = 0.673",51.3 ± 1.1 mPa·s
same,viscosity,"313.15 K, 100 kPa, x2 = 0.864",7 ± 0.2 mPa·s
same,viscosity,"318.15 K, 100 kPa, x2 = 0.01",1453 ± 68 mPa·s
same,viscosity,"318.15 K, 100 kPa, x2 = 0.17",666.7 ± 26 mPa·s
same,viscosity,"318.15 K, 100 kPa, x2 = 0.22",559.7 ± 21 mPa·s
same,viscosity,"318.15 K, 100 kPa, x2 = 0.38",257.6 ± 7.8 mPa·s
same,viscosity,"318.15 K, 100 kPa, x2 = 0.5",136.3 ± 3.5 mPa·s
same,viscosity,"318.15 K, 100 kPa, x2 = 0.58",77.5 ± 1.8 mPa·s
same,viscosity,"318.15 K, 100 kPa, x2 = 0.632",54.9 ± 1.2 mPa·s
same,viscosity,"318.15 K, 100 kPa, x2 = 0.673",41.2 ± 0.9 mPa·s
same,viscosity,"318.15 K, 100 kPa, x2 = 0.864",6.2 ± 0.2 mPa·s
same,viscosity,"323.15 K, 100 kPa, x2 = 0.01",1034 ± 45 mPa·s
same,viscosity,"323.15 K, 100 kPa, x2 = 0.17",491 ± 18 mPa·s
same,viscosity,"323.15 K, 100 kPa, x2 = 0.22",415.2 ± 14 mPa·s
same,viscosity,"323.15 K, 100 kPa, x2 = 0.38",199.7 ± 5.6 mPa·s
same,viscosity,"323.15 K, 100 kPa, x2 = 0.5",106.8 ± 2.6 mPa·s
same,viscosity,"323.15 K, 100 kPa, x2 = 0.58",61.8 ± 1.4 mPa·s
same,viscosity,"323.15 K, 100 kPa, x2 = 0.632",44.4 ± 1 mPa·s
same,viscosity,"323.15 K, 100 kPa, x2 = 0.673",33.6 ± 0.7 mPa·s
same,viscosity,"323.15 K, 100 kPa, x2 = 0.864",5.4 ± 0.1 mPa·s
C[n+]1cc([O-])on1 + O,viscosity,"313.15 K, 101 kPa, x2 = 0.1304",4.405 ± 0.038 mPa·s
same,viscosity,"313.15 K, 101 kPa, x2 = 0.2625",3.634 ± 0.031 mPa·s
same,viscosity,"313.15 K, 101 kPa, x2 = 0.4242",2.894 ± 0.024 mPa·s
same,viscosity,"313.15 K, 101 kPa, x2 = 0.6104",2.178 ± 0.018 mPa·s
same,viscosity,"313.15 K, 101 kPa, x2 = 0.7384",1.687 ± 0.014 mPa·s
same,viscosity,"313.15 K, 101 kPa, x2 = 0.882",1.121 ± 0.009 mPa·s
same,viscosity,"313.15 K, 101 kPa, x2 = 0.9089",1.015 ± 0.009 mPa·s
same,viscosity,"313.15 K, 101 kPa, x2 = 0.9709",0.775 ± 0.007 mPa·s
same,viscosity,"313.15 K, 101 kPa, x2 = 0.9746",0.768 ± 0.007 mPa·s
Cn1cc[n+](CC(O)CNCCN(CCNCC(O)C[n+]2ccn(C)c2)CC(O)C[n+]2ccn(C)c2)c1.[Cl-].[Cl-].[Cl-] (centres undefined) + O,viscosity,"298.15 K, 101.33 kPa, x2 = 0.49",1956 ± 110 mPa·s
same,viscosity,"308.15 K, 101.33 kPa, x2 = 0.49",779.1 ± 36 mPa·s
same,viscosity,"318.15 K, 101.33 kPa, x2 = 0.49",370.5 ± 15 mPa·s
O=C(O)[C@@H](O)[C@@H](O)C(=O)O + O,viscosity,"298 K, 101.3 kPa, x1 = 0.000823",0.9012 ± 0.011 mPa·s
same,viscosity,"298 K, 101.3 kPa, x1 = 0.00165",0.9144 ± 0.011 mPa·s
same,viscosity,"298 K, 101.3 kPa, x1 = 0.003567",0.9399 ± 0.012 mPa·s
same,viscosity,"298 K, 101.3 kPa, x1 = 0.005454",0.9656 ± 0.012 mPa·s
same,viscosity,"298 K, 101.3 kPa, x1 = 0.006888",0.99 ± 0.012 mPa·s
same,viscosity,"298 K, 101.3 kPa, x1 = 0.00872",1.018 ± 0.013 mPa·s
same,viscosity,"298 K, 101.3 kPa, x1 = 0.01004",1.034 ± 0.013 mPa·s
same,viscosity,"298 K, 101.3 kPa, x1 = 0.01181",1.066 ± 0.013 mPa·s
O=C1CCC[NH+]1C1CCCCC1.O=S(=O)([O-])c1ccccc1 + O,viscosity,"303.15 K, 101 kPa, x1 = 0.01351",1.405 ± 0.016 mPa·s
O=N[O-].[Na+] + O,viscosity,"293.15 K, 101.33 kPa, x2 = 0.85",2.834 ± 0.12 mPa·s
same,viscosity,"293.15 K, 101.33 kPa, x2 = 0.87",2.248 ± 0.097 mPa·s
same,viscosity,"293.15 K, 101.33 kPa, x2 = 0.89",1.903 ± 0.081 mPa·s
same,viscosity,"293.15 K, 101.33 kPa, x2 = 0.92",1.494 ± 0.06 mPa·s
same,viscosity,"293.15 K, 101.33 kPa, x2 = 0.94",1.374 ± 0.054 mPa·s
same,viscosity,"298.15 K, 101 kPa, x1 = 0.0182",0.97 ± 0.02 mPa·s
same,viscosity,"298.15 K, 101 kPa, x1 = 0.0368",1.09 ± 0.02 mPa·s
same,viscosity,"298.15 K, 101 kPa, x1 = 0.0558",1.24 ± 0.03 mPa·s
same,viscosity,"298.15 K, 101 kPa, x1 = 0.0753",1.43 ± 0.03 mPa·s
same,viscosity,"298.15 K, 101 kPa, x1 = 0.0989",1.73 ± 0.04 mPa·s
same,viscosity,"313.15 K, 101 kPa, x1 = 0.0182",0.72 ± 0.02 mPa·s
same,viscosity,"313.15 K, 101 kPa, x1 = 0.0368",0.82 ± 0.02 mPa·s
same,viscosity,"313.15 K, 101 kPa, x1 = 0.0558",0.93 ± 0.02 mPa·s
same,viscosity,"313.15 K, 101 kPa, x1 = 0.0753",1.05 ± 0.02 mPa·s
same,viscosity,"313.15 K, 101 kPa, x1 = 0.0989",1.26 ± 0.03 mPa·s
O=S(=O)([N-]S(=O)(=O)C(F)(F)C(F)(F)F)C(F)(F)F.[Li+] + O,viscosity,"293.15 K, 101 kPa, x1 = 0.3",145 ± 4 mPa·s
same,viscosity,"298.15 K, 101 kPa, x1 = 0.3",114 ± 3 mPa·s
same,viscosity,"303.15 K, 101 kPa, x1 = 0.3",89.8 ± 2.2 mPa·s
same,viscosity,"313.15 K, 101 kPa, x1 = 0.3",58.8 ± 1.4 mPa·s
same,viscosity,"323.15 K, 101 kPa, x1 = 0.3",40.2 ± 0.9 mPa·s
[Al+3].[Cl-].[Cl-].[Cl-] + O,viscosity,"293.15 K, 101 kPa, x1 = 0.039",5.58 ± 0.15 mPa·s
FCC(F)(F)F + OCCO,viscosity,"293.15 K, 101.32 kPa, x2 = 0.948",16.9 ± 1.2 mPa·s
same,viscosity,"293.15 K, 101.32 kPa, x2 = 0.964",17.1 ± 1.2 mPa·s
same,viscosity,"293.15 K, 101.32 kPa, x2 = 0.974",17.9 ± 1.2 mPa·s
same,viscosity,"313.15 K, 101.32 kPa, x2 = 0.949",7.76 ± 0.53 mPa·s
same,viscosity,"313.15 K, 101.32 kPa, x2 = 0.965",7.91 ± 0.54 mPa·s
same,viscosity,"313.15 K, 101.32 kPa, x2 = 0.975",7.86 ± 0.54 mPa·s
FCC(F)(F)F + OCCOCCO,viscosity,"293.15 K, 101.32 kPa, x2 = 0.788",12.4 ± 0.9 mPa·s
same,viscosity,"293.15 K, 101.32 kPa, x2 = 0.814",14.3 ± 1 mPa·s
same,viscosity,"293.15 K, 101.32 kPa, x2 = 0.844",16.7 ± 1.1 mPa·s
same,viscosity,"293.15 K, 101.32 kPa, x2 = 0.892",21 ± 1.4 mPa·s
same,viscosity,"313.15 K, 101.32 kPa, x2 = 0.816",6.78 ± 0.46 mPa·s
same,viscosity,"313.15 K, 101.32 kPa, x2 = 0.845",7.29 ± 0.5 mPa·s
same,viscosity,"313.15 K, 101.32 kPa, x2 = 0.893",8.26 ± 0.57 mPa·s
FCC(F)(F)F + OCCOCCOCCO,viscosity,"293.15 K, 101.32 kPa, x2 = 0.732",11.3 ± 0.8 mPa·s
same,viscosity,"293.15 K, 101.32 kPa, x2 = 0.79",15.8 ± 1.1 mPa·s
same,viscosity,"293.15 K, 101.32 kPa, x2 = 0.901",28.9 ± 2 mPa·s
same,viscosity,"313.15 K, 101.32 kPa, x2 = 0.733",5.52 ± 0.38 mPa·s
same,viscosity,"313.15 K, 101.32 kPa, x2 = 0.791",7.14 ± 0.49 mPa·s
same,viscosity,"313.15 K, 101.32 kPa, x2 = 0.903",11.2 ± 0.8 mPa·s
